Experimental data as given in US20080188481A1 (priority 2002, published 2008).

Tested on: HIV-1 single-round infectious reporter virus
Assay: Single-round infectious HIV-1 luciferase reporter virus infection of HeLa CD4 cells (antiviral EC50)
Assay type: cell-based
Settings: Human immunodeficiency virus 1, HeLa, 72 h, read-out: EC50 Group from Table 1
Protocol: • Virus production—Human embryonic Kidney cell line, 293T, was propagated in Dulbecco's Modified Eagle Medium (Invitrogen, Carlsbad, Calif.) containing 10% fetal Bovine serum (FBS, Sigma, St. Louis, Mo.). • Virus infection—Human epithelial cell line, HeLa, expressing the HIV-1 receptor CD4 was propagated in Dulbecco's Modified Eagle Medium (Invitrogen, Carlsbad, Calif.) containing 10% fetal Bovine serum (FBS, Sigma, St. Louis, Mo.) and supplemented with 0.2 mg/mL Geneticin (Invitrogen, Carlsbad, Calif.). Virus-Single-round infectious reporter virus was produced by co-transfecting human embryonic Kidney 293 cells with an HIV-1 envelope DNA expression vector and a proviral cDNA containing an envelope deletion mutation and the luciferase reporter gene inserted in place of HIV-1 nef sequences (Chen et al, Ref. 41). Transfections were performed using lipofectAMINE PLUS reagent as described by the manufacturer (Invitrogen, Carlsbad, Calif.).
• 1. HeLa CD4 cells were plated in 96 well plates at a cell density of 1×10^4 cells per well in 100 μl Dulbecco's Modified Eagle Medium containing 10% fetal Bovine serum and incubated overnight. • 2. Compound was added in a 2 μl dimethylsulfoxide solution, so that the final assay concentration would be ≦10 μM. • 3. 100 μl of single-round infectious reporter virus in Dulbecco's Modified Eagle Medium was then added to the plated cells and compound at an approximate multiplicity of infection (MOI) of 0.01, resulting in a final volume of 200 μl per well. • 4. Virally-infected cells were incubated at 37 degrees Celsius, in a CO2 incubator, and harvested 72 h after infection. • 5. Viral infection was monitored by measuring luciferase expression from viral DNA in the infected cells using a luciferase reporter gene assay kit, as described by the manufacturer (Roche Molecular Biochemicals, Indianapolis, Ind.). Infected cell supernatants were removed and 50 μl of lysis buffer was added per well. After 15 minutes, 50 μl of freshly-reconstituted luciferase assay reagent was added per well. Luciferase activity was then quantified by measuring luminescence using a Wallac microbeta scintillation counter. • 6. The percent inhibition for each compound was calculated by quantifying the level of luciferase expression in cells infected in the presence of each compound as a percentage of that observed for cells infected in the absence of compound and subtracting such a determined value from 100. • 7. An EC50 provides a method for comparing the antiviral potency of the compounds of this invention. The effective concentration for fifty percent inhibition (EC50) was calculated with the Microsoft Excel Xlfit curve fitting software. For each compound, curves were generated from percent inhibition calculated at 10 different concentrations by using a four paramenter logistic model (model 205). Table 1 is the key for the data in Table 2.

`COc1cnc(-n2ccnn2)c2[nH]cc(C(=O)C(=O)N3CCC(=C(c4ccccc4)c4nnc(O)o4)CC3)c12` [Example 77, 1-[4-(1-Phenyl-1-(5-hydroxy-1,3,4-oxadiazol-2-yl)-methylene)-piperidin-1-yl]-2-[4-methoxy-7-(1,2,3-triazol-1-yl)-6-azaindol-3-yl]-ethane-1,2-dione] showed an EC50 of less than 1000 nM.
With `COc1cnc(-n2ccnn2)c2[nH]cc(C(=O)C(=O)N3CCC(=C(c4ccccc4)c4cccc(CO)c4)CC3)c12` [Example 78, 1-[4-(1-Phenyl-1-(3-hydroxymethylphenyl)-methylene)-piperidin-1-yl]-2-[4-methoxy-7-(1,2,3-triazol-1-yl)-6-azaindol-3-yl]-ethane-1,2-dione] the EC50 was less than 1000 nM.
`COc1cnc(-n2cncn2)c2[nH]cc(C(=O)C(=O)N3CCC(=C(c4ccccc4)c4nnc(C)o4)CC3)c12` [Example 79, 1-[4-(1-Phenyl-1-(5-methyl-1,3,4-oxadiazol-2-yl)-methylene)-piperidin-1-yl]-2-[4-methoxy-7-(1,2,4-triazol-1-yl)-6-azaindol-3-yl]-ethane-1,2-dione] showed an EC50 of less than 1000 nM.
`COc1cnc(-n2cnc(C)n2)c2[nH]cc(C(=O)C(=O)N3CCC(=C(c4ccccc4)c4nnc(C)o4)CC3)c12` [Example 80, 1-[4-(1-Phenyl-1-(5-methyl-1,3,4-oxadiazol-2-yl)-methylene)-piperidin-1-yl]-2-[4-methoxy-7-(3-methyl-1,2,4-triazol-1-yl)-6-azaindol-3-yl]-ethane-1,2-dione] was tested, and the EC50 was less than 1000 nM.
With `COc1cnc(-n2cnc(C)n2)c2[nH]cc(C(=O)C(=O)N3CCC(=C(c4ccccc4)c4nnc(C(C)C)o4)CC3)c12` [Example 81, 1-[4-(1-Phenyl-1-(5-isopropyl-1,3,4-oxadiazol-2-yl)-methylene)-piperidin-1-yl]-2-[4-methoxy-7-(3-methyl-1,2,4-triazol-1-yl)-6-azaindol-3-yl]-ethane-1,2-dione] the EC50 was less than 1000 nM.
`COc1cnc(-n2cnc(C)n2)c2[nH]cc(C(=O)C(=O)N3CCC(=C(c4ccccc4)c4nnc(C5CC5)o4)CC3)c12` [Example 82, 1-[4-(1-Phenyl-1-(5-cyclopropyl-1,3,4-oxadiazol-2-yl)-methylene)-piperidin-1-yl]-2-[4-methoxy-7-(3-methyl-1,2,4-triazol-1-yl)-6-azaindol-3-yl]-ethane-1,2-dione] gave an EC50 of less than 1000 nM.
Work on `COc1cnc(-n2cnc(C)n2)c2[nH]cc(C(=O)C(=O)N3CCC(=C(c4ccccc4)c4nnc(O)o4)CC3)c12` [Example 83, 1-[4-(1-Phenyl-1-(5-hydroxy-1,3,4-oxadiazol-2-yl)-methylene)-piperidin-1-yl]-2-[4-methoxy-7-(3-methyl-1,2,4-triazol-1-yl)-6-azaindol-3-yl]-ethane-1,2-dione] yielded an EC50 of less than 1000 nM.
Work on `COc1cnc(-n2cnc(C)n2)c2[nH]cc(C(=O)C(=O)N3CCC(=C(c4ccccc4)c4cccc(CO)c4)CC3)c12` [Example 84, 1-[4-(1-Phenyl-1-(3-hydroxymethylphenyl)-methylene)-piperidin-1-yl]-2-[4-methoxy-7-(3-methyl-1,2,4-triazol-1-yl)-6-azaindol-3-yl]-ethane-1,2-dione] yielded an EC50 of less than 1000 nM.
In the case of `COc1cnc(-n2cnc(C)n2)c2[nH]cc(C(=O)C(=O)N3CCC(=C(c4ccccc4)c4cc(F)cc(F)c4)CC3)c12` [Example 85, 1-[4-(1-Phenyl-1-(3,5-difluorophenyl)-methylene)-piperidin-1-yl]-2-[4-methoxy-7-(3-methyl-1,2,4-triazol-1-yl)-6-azaindol-3-yl]-ethane-1,2-dione], the EC50 is reported as less than 1000 nM.
For `CCOC(=O)c1cc(C(=C2CCN(C(=O)C(=O)c3c[nH]c4c(-n5cnc(C)n5)ncc(OC)c34)CC2)c2ccccc2)n[nH]1` [Example 87], the EC50 was less than 1000 nM.
In the case of `COc1cnc(-n2cncn2)c2[nH]cc(C(=O)C(=O)N3CCC(=C(Br)c4ccccc4)CC3)c12` [Example 88], the EC50 is reported as less than 1000 nM.
In the case of `COc1cnc(-c2cnccn2)c2[nH]cc(C(=O)C(=O)N3CCC(=C(Br)c4ccccc4)CC3)c12` [Example 89], the EC50 is reported as less than 1000 nM.
`COc1cnc(-c2cnccn2)c2[nH]cc(C(=O)C(=O)N3CCC(=C(c4ccccc4)c4nccs4)CC3)c12` [Example 90] showed an EC50 of less than 1000 nM.
Work on `COc1cnc(-c2cnccn2)c2[nH]cc(C(=O)C(=O)N3CCC(=C(c4ccccc4)c4csc(C)n4)CC3)c12` [Example 91] yielded an EC50 of less than 1000 nM.
Compound `COc1cnc(-c2cnccn2)c2[nH]cc(C(=O)C(=O)N3CCC(=C(c4ccccc4)c4cnco4)CC3)c12` [Example 92] has an EC50 of less than 1000 nM.
Compound `COc1cnc(-c2cnccn2)c2[nH]cc(C(=O)C(=O)N3CCC(=C(c4ccccc4)c4ccc(F)cc4)CC3)c12` [Example 93] has an EC50 of less than 1000 nM.
With `COc1cnc(-c2cnccn2)c2[nH]cc(C(=O)C(=O)N3CCC(=C(c4ccccc4)c4cccc(F)c4)CC3)c12` [Example 94] the EC50 was less than 1000 nM.
For `COc1cnc(-n2ccc(C)n2)c2[nH]cc(C(=O)C(=O)N3CCC(=C(c4ccccc4)c4nccs4)CC3)c12` [Example 95], the EC50 was less than 1000 nM.
Work on `COc1cnc(-n2ccc(C)n2)c2[nH]cc(C(=O)C(=O)N3CCC(=C(c4ccccc4)c4cnccn4)CC3)c12` [Example 96] yielded an EC50 of less than 1000 nM.
`COc1cnc(-n2ccc(C)n2)c2[nH]cc(C(=O)C(=O)N3CCC(=C(c4ccccc4)c4ccc(F)cc4)CC3)c12` [Example 97] gave an EC50 of less than 1000 nM.
Compound `COc1cnc(-n2ccc(C)n2)c2[nH]cc(C(=O)C(=O)N3CCC(=C(c4ccccc4)c4cccc(F)c4)CC3)c12` [Example 98] has an EC50 of less than 1000 nM.
`COc1cnc(-n2ccc(C)n2)c2[nH]cc(C(=O)C(=O)N3CCC(=C(c4ccccc4)c4nnc(C)o4)CC3)c12` [Example 99] showed an EC50 of less than 1000 nM.
For `COc1cnc(-n2ccc(C)n2)c2[nH]cc(C(=O)C(=O)N3CCC(=C(c4ccccc4)c4csc(C)n4)CC3)c12` [Example 100], the EC50 was less than 1000 nM.
In the case of `N#CC(=C1CCN(C(=O)C(=O)c2c[nH]c3c(Cl)ccnc23)CC1)c1ccccc1` [Example 101, {1-[2-(7-Chloro-1H-pyrrolo[3,2-b]pyridin-3-yl)-2-oxo-acetyl]-piperidin-4-ylidene}-phenyl-acetonitrile], the EC50 is reported as less than 1000 nM.
`N#CC(=C1CCN(C(=O)C(=O)c2c[nH]c3c(-c4cnccn4)ccnc23)CC1)c1ccccc1` [Example 102, {1-[2-Oxo-2-(7-pyrazin-2-yl-1H-pyrrolo[3,2-b]pyridin-3-yl)-acetyl]-piperidin-4-ylidene}-phenyl-acetonitrile] showed an EC50 of less than 1000 nM.
`N#CC(=C1CCN(C(=O)C(=O)c2c[nH]c3c(-c4ncco4)ccnc23)CC1)c1ccccc1` [Example 103, {1-[2-(7-Oxazol-2-yl-1H-pyrrolo[3,2-b]pyridin-3-yl)-2-oxo-acetyl]-piperidin-4-ylidene}-phenyl-acetonitrile] gave an EC50 of less than 1000 nM.
Compound `N#CC(=C1CCN(C(=O)C(=O)c2c[nH]c3c(-c4nccs4)ccnc23)CC1)c1ccccc1` [Example 104, {1-[2-Oxo-2-(7-thiazol-2-yl-1H-pyrrolo[3,2-b]pyridin-3-yl)-acetyl]-piperidin-4-ylidene}-phenyl-acetonitrile] has an EC50 of less than 1000 nM.
Work on `N#CC(=C1CCN(C(=O)C(=O)c2c[nH]c3c(-n4nccn4)ccnc23)CC1)c1ccccc1` [Example 105, {1-[2-Oxo-2-(7-[1,2,3]triazol-2-yl-1H-pyrrolo[3,2-b]pyridin-3-yl)-acetyl]-piperidin-4-ylidene}-phenyl-acetonitrile] yielded an EC50 of less than 1000 nM.
